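Exposure lasted 48 hours, with cells grown in 96-well plates and compounds tested at five concentrations. At the GI50, growth is halved. The concentration for full growth arrest is given as TGI.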
Key:
Assay in all cases: NCI anticancer screen, dose series, 48 h
A549 NSCLC = test system: A549 NSCLC
SK-MEL-28 melanoma = test system: SK-MEL-28 melanoma
A498 renal = test system: A498 renal
RXF 393 renal = test system: RXF 393 renal
BT-549 breast = test system: BT-549 breast
SK-OV-3 ovarian = test system: SK-OV-3 ovarian
HL-60(TB) leukemia = test system: HL-60(TB) leukemia
TK-10 renal = test system: TK-10 renal
M14 melanoma = test system: M14 melanoma
PC-3 prostate = test system: PC-3 prostate
SF-539 CNS = test system: SF-539 CNS
NCI/ADR-RES ovarian = test system: NCI/ADR-RES ovarian
SNB-75 CNS = test system: SNB-75 CNS
UACC-62 melanoma = test system: UACC-62 melanoma
KM12 colon = test system: KM12 colon
COLO 205 colon = test system: COLO 205 colon
U251 CNS = test system: U251 CNS
HCT-15 colon = test system: HCT-15 colon
786-0 renal = test system: 786-0 renal
HOP-92 NSCLC = test system: HOP-92 NSCLC
MCF7 breast = test system: MCF7 breast
SK-MEL-5 melanoma = test system: SK-MEL-5 melanoma
NCI-H522 lung = test system: NCI-H522 lung
HCC-2998 colon = test system: HCC-2998 colon
T-47D breast = test system: T-47D breast
SW-620 colon = test system: SW-620 colon
SK-MEL-2 melanoma = test system: SK-MEL-2 melanoma
HS 578T breast = test system: HS 578T breast
MDA-MB-435 = test system: MDA-MB-435
NCI-H226 lung = test system: NCI-H226 lung
ACHN renal = test system: ACHN renal
CAKI-1 renal = test system: CAKI-1 renal
MOLT-4 leukemia = test system: MOLT-4 leukemia
SF-295 CNS = test system: SF-295 CNS
RPMI-8226 leukemia = test system: RPMI-8226 leukemia
SF-268 CNS = test system: SF-268 CNS
DU-145 prostate = test system: DU-145 prostate
OVCAR-4 ovarian = test system: OVCAR-4 ovarian
HOP-62 NSCLC = test system: HOP-62 NSCLC
IGROV1 ovarian = test system: IGROV1 ovarian
HCT-116 colon = test system: HCT-116 colon
K-562 leukemia = test system: K-562 leukemia
OVCAR-5 ovarian = test system: OVCAR-5 ovarian
OVCAR-3 ovarian = test system: OVCAR-3 ovarian
NCI-H460 lung = test system: NCI-H460 lung
MALME-3M melanoma = test system: MALME-3M melanoma
UO-31 renal = test system: UO-31 renal
LOX IMVI melanoma = test system: LOX IMVI melanoma
OVCAR-8 ovarian = test system: OVCAR-8 ovarian
SNB-19 CNS = test system: SNB-19 CNS
MDA-MB-231 breast = test system: MDA-MB-231 breast
NCI-H23 lung = test system: NCI-H23 lung
SN12C renal = test system: SN12C renal
HT29 colon = test system: HT29 colon
EKVX NSCLC = test system: EKVX NSCLC
SR leukemia = test system: SR leukemia
CCRF-CEM leukemia = test system: CCRF-CEM leukemia
UACC-257 melanoma = test system: UACC-257 melanoma

## NC(N)=Nc1ccc(Oc2cccc(Nc3cccc(C(F)(F)F)c3)c2)cn1
A549 NSCLC
  GI50: 1.88 µM
  TGI: 4.42 µM
SK-MEL-28 melanoma
  GI50: 1.7 µM
  TGI: 3.16 µM
A498 renal
  GI50: 1.51 µM
  TGI: 3.02 µM
RXF 393 renal
  GI50: 1.76 µM
  TGI: 3.39 µM
BT-549 breast
  GI50: 1.76 µM
  TGI: 3.3 µM
SK-OV-3 ovarian
  GI50: 2.08 µM
  TGI: 4.27 µM
HL-60(TB) leukemia
  GI50: 2.04 µM
  TGI: 4.36 µM
TK-10 renal
  GI50: 1.85 µM
  TGI: 3.63 µM
M14 melanoma
  GI50: 1.76 µM
  TGI: 3.33 µM
PC-3 prostate
  GI50: 1.47 µM
  TGI: 2.88 µM
SF-539 CNS
  GI50: 1.72 µM
  TGI: 3.22 µM
NCI/ADR-RES ovarian
  GI50: 4.85 µM
  TGI: 37.6 µM
SNB-75 CNS
  GI50: 1.37 µM
  TGI: 2.74 µM
UACC-62 melanoma
  GI50: 1.79 µM
  TGI: 3.4 µM

## CN1CCN(c2ccc(Nc3nc(NCCCNS(=O)(=O)c4ccc(F)cc4)c4sccc4n3)cc2)CC1
KM12 colon
  GI50: 16.9 µM
  TGI: 56.4 µM
COLO 205 colon
  GI50: 14.2 µM
  TGI: 32.2 µM
U251 CNS
  GI50: 5.65 µM
  TGI: 28.6 µM
A549 NSCLC
  GI50: 21.2 µM
  TGI: 97.9 µM
HCT-15 colon
  GI50: 4.6 µM
  TGI: 20.1 µM
786-0 renal
  GI50: 15.6 µM
  TGI: 34.4 µM
HOP-92 NSCLC
  GI50: 4.72 µM
  TGI: 26.1 µM
MCF7 breast
  GI50: 7.39 µM
  TGI: 20.2 µM
SK-MEL-5 melanoma
  GI50: 15.8 µM
  TGI: 29.2 µM
NCI-H522 lung
  GI50: 13.3 µM
  TGI: 27.5 µM
HCC-2998 colon
  GI50: 14.9 µM
  TGI: 30.8 µM
T-47D breast
  GI50: 15 µM
  TGI: 40.4 µM
SW-620 colon
  GI50: 15.2 µM
  TGI: 30.1 µM
SK-MEL-28 melanoma
  GI50: 13.1 µM
  TGI: 25.8 µM
SK-MEL-2 melanoma
  GI50: 15.5 µM
  TGI: 29.7 µM
HS 578T breast
  GI50: 4.92 µM
  TGI: 25.4 µM
MDA-MB-435
  GI50: 14.3 µM
  TGI: 27.4 µM
A498 renal
  GI50: 16.1 µM
  TGI: 32.4 µM
NCI-H226 lung
  GI50: 10.8 µM
  TGI: 23.1 µM
ACHN renal
  GI50: 17.1 µM
  TGI: 40.2 µM
CAKI-1 renal
  GI50: 15.2 µM
  TGI: 28.4 µM
MOLT-4 leukemia
  GI50: 6.02 µM
  TGI: 43.1 µM
SF-295 CNS
  GI50: 13.3 µM
  TGI: 26.6 µM
BT-549 breast
  GI50: 13.9 µM
  TGI: 31.4 µM
RPMI-8226 leukemia
  GI50: 5.24 µM
  TGI: 37.6 µM
SF-268 CNS
  GI50: 12.8 µM
  TGI: 63.4 µM
DU-145 prostate
  GI50: 17.4 µM
  TGI: 43 µM
OVCAR-4 ovarian
  GI50: 10.2 µM
  TGI: 38.8 µM
HOP-62 NSCLC
  GI50: 15.4 µM
  TGI: 32.8 µM
IGROV1 ovarian
  GI50: 12.9 µM
  TGI: 28 µM
SK-OV-3 ovarian
  GI50: 27 µM
  TGI: 78.4 µM
HCT-116 colon
  GI50: 5.35 µM
  TGI: 28.5 µM
K-562 leukemia
  GI50: 2.82 µM
  TGI: > 100 µM
HL-60(TB) leukemia
  GI50: 19.8 µM
  TGI: 45.4 µM
OVCAR-5 ovarian
  GI50: 18.1 µM
  TGI: 55.9 µM
OVCAR-3 ovarian
  GI50: 17.8 µM
  TGI: 55.7 µM
NCI-H460 lung
  GI50: 14.5 µM
  TGI: 29.2 µM
MALME-3M melanoma
  GI50: 12.1 µM
  TGI: 24.4 µM
UO-31 renal
  GI50: 10.7 µM
  TGI: 28.7 µM
TK-10 renal
  GI50: 24.6 µM
  TGI: 61.5 µM
M14 melanoma
  GI50: 2.47 µM
  TGI: 7.33 µM
LOX IMVI melanoma
  GI50: 12 µM
  TGI: 25.6 µM
OVCAR-8 ovarian
  GI50: 14.9 µM
  TGI: 42.8 µM
PC-3 prostate
  GI50: 13.4 µM
  TGI: 46.1 µM
SNB-19 CNS
  GI50: 23 µM
  TGI: 61.1 µM
MDA-MB-231 breast
  GI50: 11 µM
  TGI: 27.3 µM
NCI-H23 lung
  GI50: 14.8 µM
  TGI: 30.3 µM
SN12C renal
  GI50: 13.6 µM
  TGI: 37.2 µM
SF-539 CNS
  GI50: 12 µM
  TGI: 24.4 µM
NCI/ADR-RES ovarian
  GI50: 18.9 µM
  TGI: 55.2 µM
HT29 colon
  GI50: 5.18 µM
  TGI: 25 µM
EKVX NSCLC
  GI50: 21 µM
  TGI: 73.8 µM
SR leukemia
  GI50: 2.83 µM
  TGI: > 100 µM
SNB-75 CNS
  GI50: 0.271 µM
  TGI: 20.3 µM
UACC-62 melanoma
  GI50: 12.5 µM
  TGI: 25.2 µM
CCRF-CEM leukemia
  GI50: 22.2 µM
  TGI: > 100 µM
UACC-257 melanoma
  GI50: 15.1 µM
  TGI: 30.3 µM

## CC[C@H](CO)Nc1ccc2ncc(C#Cc3cncc(C(=O)Nc4ccc(CN5CCN(C)CC5)c(C(F)(F)F)c4)c3)n2n1
KM12 colon
  GI50: 0.0165 µM
  TGI: 1.18 µM
COLO 205 colon
  GI50: 0.126 µM
  TGI: 0.319 µM
U251 CNS
  GI50: 0.58 µM
  TGI: 1.31 µM
A549 NSCLC
  GI50: 0.356 µM
  TGI: 1.45 µM
HCT-15 colon
  GI50: 0.813 µM
  TGI: 2.07 µM
786-0 renal
  GI50: 0.362 µM
  TGI: 1.08 µM
HOP-92 NSCLC
  GI50: 0.07 µM
  TGI: 0.307 µM
MCF7 breast
  GI50: 0.163 µM
  TGI: 0.807 µM
SK-MEL-5 melanoma
  GI50: 0.766 µM
  TGI: 1.46 µM
NCI-H522 lung
  GI50: 0.238 µM
  TGI: 0.997 µM
HCC-2998 colon
  GI50: 0.703 µM
  TGI: 1.69 µM
T-47D breast
  GI50: 0.9 µM
  TGI: 2.92 µM
SW-620 colon
  GI50: 0.186 µM
  TGI: 0.803 µM
SK-MEL-28 melanoma
  GI50: 0.681 µM
  TGI: 1.49 µM
SK-MEL-2 melanoma
  GI50: 0.47 µM
  TGI: 1.21 µM
HS 578T breast
  GI50: 0.2 µM
  TGI: 1.07 µM
MDA-MB-435
  GI50: 0.451 µM
  TGI: 1.09 µM
A498 renal
  GI50: 0.266 µM
  TGI: 0.721 µM
NCI-H226 lung
  GI50: 0.205 µM
  TGI: 1.17 µM
ACHN renal
  GI50: 0.442 µM
  TGI: 1.13 µM
CAKI-1 renal
  GI50: 0.349 µM
  TGI: 1.11 µM
MOLT-4 leukemia
  GI50: 0.239 µM
  TGI: 1.94 µM
SF-295 CNS
  GI50: 0.555 µM
  TGI: 1.6 µM
RXF 393 renal
  GI50: 0.273 µM
  TGI: 0.91 µM
BT-549 breast
  GI50: 0.58 µM
  TGI: 1.67 µM
RPMI-8226 leukemia
  GI50: 0.577 µM
  TGI: 1.8 µM
SF-268 CNS
  GI50: 0.246 µM
  TGI: 1.22 µM
DU-145 prostate
  GI50: 0.579 µM
  TGI: 1.43 µM
OVCAR-4 ovarian
  GI50: 0.507 µM
  TGI: 2.54 µM
HOP-62 NSCLC
  GI50: 0.288 µM
  TGI: 1.09 µM
IGROV1 ovarian
  GI50: 0.152 µM
  TGI: 0.835 µM
SK-OV-3 ovarian
  GI50: 1.19 µM
  TGI: 2.78 µM
HCT-116 colon
  GI50: 0.17 µM
  TGI: 0.662 µM
K-562 leukemia
  GI50: 0.0158 µM
  TGI: 0.636 µM
HL-60(TB) leukemia
  GI50: 0.218 µM
  TGI: 0.648 µM
OVCAR-5 ovarian
  GI50: 0.553 µM
  TGI: 2.07 µM
OVCAR-3 ovarian
  GI50: 0.576 µM
  TGI: 1.63 µM
NCI-H460 lung
  GI50: 0.423 µM
  TGI: 1.14 µM
MALME-3M melanoma
  GI50: 0.66 µM
  TGI: 1.43 µM
UO-31 renal
  GI50: 0.94 µM
  TGI: 2.14 µM
TK-10 renal
  GI50: 1 µM
  TGI: 2.45 µM
M14 melanoma
  GI50: 0.322 µM
  TGI: 1.01 µM
LOX IMVI melanoma
  GI50: 0.206 µM
  TGI: 0.817 µM
OVCAR-8 ovarian
  GI50: 0.589 µM
  TGI: 1.32 µM
PC-3 prostate
  GI50: 0.67 µM
  TGI: 2.8 µM
SNB-19 CNS
  GI50: 0.88 µM
  TGI: 3.28 µM
MDA-MB-231 breast
  GI50: 0.142 µM
  TGI: 0.903 µM
SN12C renal
  GI50: 0.16 µM
  TGI: 1.03 µM
SF-539 CNS
  GI50: 0.0454 µM
  TGI: 0.266 µM
NCI/ADR-RES ovarian
  GI50: 5.85 µM
  TGI: 13.4 µM
HT29 colon
  GI50: 0.221 µM
  TGI: 0.933 µM
EKVX NSCLC
  GI50: 0.391 µM
  TGI: 1.62 µM
SR leukemia
  GI50: 0.196 µM
  TGI: 0.888 µM
SNB-75 CNS
  GI50: 0.0484 µM
  TGI: 0.314 µM
UACC-62 melanoma
  GI50: 0.767 µM
  TGI: 1.57 µM
CCRF-CEM leukemia
  GI50: 0.188 µM
  TGI: 1.37 µM
UACC-257 melanoma
  GI50: 0.76 µM
  TGI: 1.53 µM
